Legend:
T-cell [1] = assay: IL-2 secretion from T-cells co-stimulated with anti-CD3 and anti-CD28 antibody (Biological Example 2); type: cell-based, human; conditions: Homo sapiens, T-cell
In short: (§1)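 No assay protocol given; T-cells stimulated with anti-CD3 alone or anti-CD3 plus anti-CD28, with or without Cbl-b inhibitor. Activation read as IL-2 secretion or CD25 surface staining, expressed as fold over baseline from uninhibited cells […].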

T-cell [2] = assay: CD25 cell surface staining on T-cells co-stimulated with anti-CD3 and anti-CD28 antibody (Biological Example 2); type: cell-based, human; conditions: Homo sapiens, T-cell
In short: as §1

T-cell [3] = assay: CD25 cell surface staining on T-cells stimulated with anti-CD3 antibody alone (Biological Example 2); type: cell-based, human; conditions: T-cell, read-out: CD25 staining Anti-CD3 stimulation; for fold induction at 1 µM: 1 μM Cbl-b inhibitor; for fold induction at 8 µM: 8 μM Cbl-b inhibitor
[4] = tested on: human T-cells with allogenic immature dendritic cells; assay: Allogenic mixed lymphocyte reaction (MLR), T-cell proliferation; type: cell-based; conditions: 120 h, 5 days, baseline T-cells without Cbl-b inhibitor, read-out: Proliferation, fold change over baseline
In short: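 CFSE-labelled primary human T-cells, preincubated with Cbl-b inhibitor, stimulated by allogenic immature dendritic cells derived from monocytes with GM-CSF (30 ng/mL) and IL-4 (20 ng/mL) over 7 days. Proliferation by flow cytometry, expressed as fold over inhibitor-free baseline; >2-fold counted positive.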

[5] = fold change over baseline, 0.3 μM Cbl-b inhibitor, primary human total T-cells, read-out: IL-2 secretion Anti-CD3/Anti-CD28 stimulation
[6] = fold change over baseline, 1 μM Cbl-b inhibitor, primary human total T-cells, read-out: IL-2 secretion Anti-CD3/Anti-CD28 stimulation
[7] = fold change over baseline, 4 μM Cbl-b inhibitor, primary human total T-cells, read-out: IL-2 secretion Anti-CD3/Anti-CD28 stimulation
[8] = fold change over baseline, 0.3 μM Cbl-b inhibitor, primary human total T-cells, read-out: CD25 staining Anti-CD3/Anti-CD28 stimulation
[9] = fold change over baseline, 1 μM Cbl-b inhibitor, primary human total T-cells, read-out: CD25 staining Anti-CD3/Anti-CD28 stimulation
[10] = fold change over baseline, 4 μM Cbl-b inhibitor, primary human total T-cells, read-out: CD25 staining Anti-CD3/Anti-CD28 stimulation
[11] = fold change over baseline, primary human total T-cells
[12] = 0.3 μM compound, primary human total T-cells, baseline = anti-CD3/anti-CD28 stimulated cells without inhibitor, read-out: IL-2 secretion, Anti-CD3/Anti-CD28 stimulation, fold change over baseline
[13] = 1 μM compound, primary human total T-cells, baseline = anti-CD3/anti-CD28 stimulated cells without inhibitor, read-out: IL-2 secretion, Anti-CD3/Anti-CD28 stimulation, fold change over baseline
[14] = 4 μM compound, primary human total T-cells, baseline = anti-CD3/anti-CD28 stimulated cells without inhibitor, read-out: IL-2 secretion, Anti-CD3/Anti-CD28 stimulation, fold change over baseline
[15] = 0.3 μM compound, primary human total T-cells, baseline = anti-CD3/anti-CD28 stimulated cells without inhibitor, read-out: CD25 staining, Anti-CD3/Anti-CD28 stimulation, fold change over baseline
[16] = 1 μM compound, primary human total T-cells, baseline = anti-CD3/anti-CD28 stimulated cells without inhibitor, read-out: CD25 staining, Anti-CD3/Anti-CD28 stimulation, fold change over baseline
[17] = 4 μM compound, primary human total T-cells, baseline = anti-CD3/anti-CD28 stimulated cells without inhibitor, read-out: CD25 staining, Anti-CD3/Anti-CD28 stimulation, fold change over baseline

Structure (SMILES) | fold induction at 0.3 µM (T-cell [1]; [5]) | fold induction at 1 µM (T-cell [1]; [6]) | fold induction at 4 µM (T-cell [1]; [7]) | fold induction at 0.3 µM (T-cell [2]; [8]) | fold induction at 1 µM (T-cell [2]; [9]) | fold induction at 4 µM (T-cell [2]; [10]) | fold induction at 1 µM (T-cell [3]; [11]) | fold induction at 8 µM (T-cell [3]; [11]) | fold induction at 3 µM [4] | fold induction at 10 µM [4] | further results
C[C@H](Sc1nncn1C)c1cccc(NC(=O)c2cc(C(=O)N3CC[C@H](O)C3)ccn2)c1 [Compound 140, 4-[[(3S)-3-hydroxypyrrolidin-1-yl]carbonyl]-N-[3-[(1S)-1-[(4-methyl-4H-1,2,4-triazol-3-yl)sulfanyl]ethyl]phenyl]pyridine-2-carboxamide] | < 1 | < 1 | < 1 | 1.01 to 1.3 | 1.01 to 1.3 | 1.01 to 1.3 | 0.601 to 0.8 | 0.801 to 1 | < 2 | < 2 | 
C[C@H](Cc1nncn1C)c1cccc(NC(=O)c2cccc(CCO)n2)c1 [Compound 202, 6-(2-hydroxyethyl)-N-[3-[(2R)-1-(4-methyl-4H-1,2,4-triazol-3-yl)propan-2-yl]phenyl]pyridine-2-carboxamide] | 1.01 to 2.5 | 1.01 to 2.5 | 2.51 to 5 | 1.01 to 1.3 | 1.01 to 1.3 | 1.31 to 1.5 | < 0.6 | 0.801 to 1 | < 2 | < 2 | 
C[C@H](Cc1nncn1C)c1cccc(N2Cc3c(ccnc3C3CC3)C2=O)c1 [Compound 257, 4-cyclopropyl-2-[3-[(1R)-1-methyl-2-(4-methyl-1,2,4-triazol-3-yl)ethyl]phenyl]-3H-pyrrolo[3,4-c]pyridin-1-one] | 1.01 to 2.5 | 1.01 to 2.5 | 1.01 to 2.5 | 1.01 to 1.3 | 1.01 to 1.3 | 1.31 to 1.5 | 0.601 to 0.8 | > 1 | < 2 | < 2 | 
Cn1cnnc1C(F)(F)[C@](C)(F)c1cccc(N2Cc3c(cccc3C(F)(F)F)C2=O)c1 [Compound 296a, (R)-2-(3-(1,1,2-trifluoro-1-(4-methyl-4H-1,2,4-triazol-3-yl)propan-2-yl)phenyl)-4-(trifluoromethyl)isoindolin-1-one] | 1.01 to 2.5 | 1.01 to 2.5 | 2.51 to 5 | 1.01 to 1.3 | 1.01 to 1.3 | 1.01 to 1.3 | 0.601 to 0.8 | > 1 |  |  | 
Cn1cnnc1C[C@](C)(F)c1cccc(N2Cc3c(cccc3C(F)(F)F)C2=O)c1 [Compound 298b, (S)-2-(3-(2-fluoro-1-(4-methyl-4H-1,2,4-triazol-3-yl)propan-2-yl)phenyl)-4-(trifluoromethyl)isoindolin-1-one] | 1.01 to 2.5 | 1.01 to 2.5 | 1.01 to 2.5 | 1.01 to 1.3 | < 1 | 1.01 to 1.3 | 0.601 to 0.8 | 0.801 to 1 |  |  | 
C[C@H](Cc1nncn1C)c1ccnc(N2Cc3c(cccc3C(F)(F)F)C2=O)c1 [Compound 304b, (R)-2-(4-(1-(4-methyl-4H-1,2,4-triazol-3-yl)propan-2-yl)pyridin-2-yl)-4-(trifluoromethyl)isoindolin-1-one] | < 1 | < 1 | 1.01 to 2.5 | 1.01 to 1.3 | 1.01 to 1.3 | 1.31 to 1.5 | < 0.6 | < 0.6 |  |  | 
Cn1cnnc1[C@@H]1C[C@@H]1c1cccc(NC(=O)c2nc3c(C(F)(F)F)cccc3[nH]2)c1 [Compound 332, N-(3-((1S,2R)-2-(4-methyl-4H-1,2,4-triazol-3-yl)cyclopropyl)phenyl)-4-(trifluoromethyl)-1H-benzo[d]imidazole-2-carboxamide] | 1.01 to 2.5 | 1.01 to 2.5 | 2.51 to 5 | 1.01 to 1.3 | 1.01 to 1.3 | 1.01 to 1.3 | 0.601 to 0.8 | 0.801 to 1 |  |  | 
Cc1cc(C(=O)Nc2cccc([C@@](C)(F)C(F)(F)c3nncn3C)c2)nc(C2CC2)n1 [Compound 344, (R)-2-Cyclopropyl-6-methyl-N-(3-(1,1,2-trifluoro-1-(4-methyl-4H-1,2,4-triazol-3-yl)propan-2-yl)phenyl)pyrimidine-4-carboxamide] | 1.01 to 2.5 | 2.51 to 5 | > 7.5 | 1.01 to 1.3 | 1.31 to 1.5 | 1.31 to 1.5 | 0.801 to 1 | > 1 |  |  | 
C[C@H](Cc1nncn1C)c1cc(NCCO)nc(N2Cc3c(cccc3C(F)(F)F)C2=O)c1 [Compound 357, (R)-2-(6-(2-hydroxyethylamino)-4-(1-(4-methyl-4H-1,2,4-triazol-3-yl)propan-2-yl)pyridin-2-yl)-4-(trifluoromethyl)isoindolin-1-one] | 1.01 to 2.5 | 1.01 to 2.5 | 2.51 to 5 | 1.01 to 1.3 | 1.01 to 1.3 | 1.01 to 1.3 | 0.601 to 0.8 | > 1 |  |  | 
Cn1cnnc1[C@@H]1C[C@@H]1c1cccc(N2Cc3c(ccnc3C(F)(F)F)C2=O)c1 [Compound 369, 2-{3-[(1S,2R)-2-(4-methyl-4H-1,2,4-triazol-3-yl)cyclopropyl]phenyl}-4-(trifluoromethyl)-1H,2H,3H-pyrrolo[3,4-c]pyridin-1-one] |  |  |  |  |  |  |  |  | < 2 | < 2 | fold induction at 0.3 µM (T-cell [1]; [12]): 1.01 to 2.5; fold induction at 1 µM (T-cell [1]; [13]): 1.01 to 2.5; fold induction at 4 µM (T-cell [1]; [14]): 1.01 to 2.5; fold induction at 0.3 µM (T-cell [2]; [15]): 1.01 to 1.3; fold induction at 1 µM (T-cell [2]; [16]): 1.01 to 1.3; fold induction at 4 µM (T-cell [2]; [17]): 1.01 to 1.3
Cc1cc2c(c(C3CC3)n1)CN(c1cccc([C@H](C)Cc3nncn3C)c1)C2=O [Compound 372, 4-cyclopropyl-6-methyl-2-{3-[(2R)-1-(4-methyl-4H-1,2,4-triazol-3-yl)propan-2-yl]phenyl}-1H,2H,3H-pyrrolo[3,4-c]pyridin-1-one] |  |  |  |  |  |  |  |  | < 2 | < 2 | fold induction at 0.3 µM (T-cell [1]; [12]): 1.01 to 2.5; fold induction at 1 µM (T-cell [1]; [13]): 1.01 to 2.5; fold induction at 4 µM (T-cell [1]; [14]): 2.51 to 5; fold induction at 0.3 µM (T-cell [2]; [15]): 1.01 to 1.3; fold induction at 1 µM (T-cell [2]; [16]): 1.01 to 1.3; fold induction at 4 µM (T-cell [2]; [17]): 1.01 to 1.3
CNCc1ccc(C(=O)Nc2cccc([C@H](C)Cc3nncn3C)c2)nc1C1CC1 [Compound 376, (R)-6-cyclopropyl-N-(3-(1-(4-methyl-4H-1,2,4-triazol-3-yl)propan-2-yl)phenyl)-5-((methylamino)methyl)picolinamide] |  |  |  |  |  |  |  |  | < 2 | < 2 | fold induction at 0.3 µM (T-cell [1]; [12]): 1.01 to 2.5; fold induction at 1 µM (T-cell [1]; [13]): 2.51 to 5; fold induction at 4 µM (T-cell [1]; [14]): > 7.5; fold induction at 0.3 µM (T-cell [2]; [15]): 1.01 to 1.3; fold induction at 1 µM (T-cell [2]; [16]): 1.31 to 1.5; fold induction at 4 µM (T-cell [2]; [17]): 1.51 to 1.75
C[C@H](Cc1nncn1C)c1cc(-c2cn[nH]c2)nc(N2Cc3c(cccc3C(F)(F)F)C2=O)c1 [Example 684, (R)-2-(4-(1-(4-methyl-4H-1,2,4-triazol-3-yl)propan-2-yl)-6-(1H-pyrazol-4-yl)pyridin-2-yl)-4-(trifluoromethyl)isoindolin-1-one] |  |  |  |  |  |  |  |  |  |  | fold induction at 0.3 µM (T-cell [1]; 0.3 μM Cbl-b inhibitor, fold change over baseline (anti-CD3/anti-CD28 stimulated T-cells without inhibitor), read-out: IL-2 secretion Anti-CD3/Anti-CD28 stimulation): < 1; fold induction at 1 µM (T-cell [1]; 1 μM Cbl-b inhibitor, fold change over baseline (anti-CD3/anti-CD28 stimulated T-cells without inhibitor), read-out: IL-2 secretion Anti-CD3/Anti-CD28 stimulation): < 1; fold induction at 0.3 µM (T-cell [2]; 0.3 μM Cbl-b inhibitor, fold change over baseline (anti-CD3/anti-CD28 stimulated T-cells without inhibitor), read-out: CD25 staining Anti-CD3/Anti-CD28 stimulation): < 1; fold induction at 1 µM (T-cell [2]; 1 μM Cbl-b inhibitor, fold change over baseline (anti-CD3/anti-CD28 stimulated T-cells without inhibitor), read-out: CD25 staining Anti-CD3/Anti-CD28 stimulation): < 1; fold induction at 1 µM (T-cell [3]; Homo sapiens, fold change over baseline (anti-CD3/anti-CD28 stimulated T-cells without inhibitor)): < 0.6
